Source: US10077261B2, “Imidazolin-5-one derivative useful as FASN inhibitors for the treatment of cancer” (Janssen Pharmaceutica NV, priority 2012, dated 2018)

How the values were obtained:
[1] = target: T1, hFASN enzyme (full length) (Homo sapiens, UniProt P49327); experiment: Fatty Acid Synthase (FASN) inhibition scintillation proximity assay; format: biochemical; conditions: for inhibition at 10 µM: read-out: Human FASN % inhibition @ 10 μM, 10 μM test compound; for IC50: read-out: Human FASN pIC50 (converted)
T1 construct: 10 μL hFASN enzyme (full length, 300 ng, purified in house); made in house
T1 sequence (P49327 whole entry): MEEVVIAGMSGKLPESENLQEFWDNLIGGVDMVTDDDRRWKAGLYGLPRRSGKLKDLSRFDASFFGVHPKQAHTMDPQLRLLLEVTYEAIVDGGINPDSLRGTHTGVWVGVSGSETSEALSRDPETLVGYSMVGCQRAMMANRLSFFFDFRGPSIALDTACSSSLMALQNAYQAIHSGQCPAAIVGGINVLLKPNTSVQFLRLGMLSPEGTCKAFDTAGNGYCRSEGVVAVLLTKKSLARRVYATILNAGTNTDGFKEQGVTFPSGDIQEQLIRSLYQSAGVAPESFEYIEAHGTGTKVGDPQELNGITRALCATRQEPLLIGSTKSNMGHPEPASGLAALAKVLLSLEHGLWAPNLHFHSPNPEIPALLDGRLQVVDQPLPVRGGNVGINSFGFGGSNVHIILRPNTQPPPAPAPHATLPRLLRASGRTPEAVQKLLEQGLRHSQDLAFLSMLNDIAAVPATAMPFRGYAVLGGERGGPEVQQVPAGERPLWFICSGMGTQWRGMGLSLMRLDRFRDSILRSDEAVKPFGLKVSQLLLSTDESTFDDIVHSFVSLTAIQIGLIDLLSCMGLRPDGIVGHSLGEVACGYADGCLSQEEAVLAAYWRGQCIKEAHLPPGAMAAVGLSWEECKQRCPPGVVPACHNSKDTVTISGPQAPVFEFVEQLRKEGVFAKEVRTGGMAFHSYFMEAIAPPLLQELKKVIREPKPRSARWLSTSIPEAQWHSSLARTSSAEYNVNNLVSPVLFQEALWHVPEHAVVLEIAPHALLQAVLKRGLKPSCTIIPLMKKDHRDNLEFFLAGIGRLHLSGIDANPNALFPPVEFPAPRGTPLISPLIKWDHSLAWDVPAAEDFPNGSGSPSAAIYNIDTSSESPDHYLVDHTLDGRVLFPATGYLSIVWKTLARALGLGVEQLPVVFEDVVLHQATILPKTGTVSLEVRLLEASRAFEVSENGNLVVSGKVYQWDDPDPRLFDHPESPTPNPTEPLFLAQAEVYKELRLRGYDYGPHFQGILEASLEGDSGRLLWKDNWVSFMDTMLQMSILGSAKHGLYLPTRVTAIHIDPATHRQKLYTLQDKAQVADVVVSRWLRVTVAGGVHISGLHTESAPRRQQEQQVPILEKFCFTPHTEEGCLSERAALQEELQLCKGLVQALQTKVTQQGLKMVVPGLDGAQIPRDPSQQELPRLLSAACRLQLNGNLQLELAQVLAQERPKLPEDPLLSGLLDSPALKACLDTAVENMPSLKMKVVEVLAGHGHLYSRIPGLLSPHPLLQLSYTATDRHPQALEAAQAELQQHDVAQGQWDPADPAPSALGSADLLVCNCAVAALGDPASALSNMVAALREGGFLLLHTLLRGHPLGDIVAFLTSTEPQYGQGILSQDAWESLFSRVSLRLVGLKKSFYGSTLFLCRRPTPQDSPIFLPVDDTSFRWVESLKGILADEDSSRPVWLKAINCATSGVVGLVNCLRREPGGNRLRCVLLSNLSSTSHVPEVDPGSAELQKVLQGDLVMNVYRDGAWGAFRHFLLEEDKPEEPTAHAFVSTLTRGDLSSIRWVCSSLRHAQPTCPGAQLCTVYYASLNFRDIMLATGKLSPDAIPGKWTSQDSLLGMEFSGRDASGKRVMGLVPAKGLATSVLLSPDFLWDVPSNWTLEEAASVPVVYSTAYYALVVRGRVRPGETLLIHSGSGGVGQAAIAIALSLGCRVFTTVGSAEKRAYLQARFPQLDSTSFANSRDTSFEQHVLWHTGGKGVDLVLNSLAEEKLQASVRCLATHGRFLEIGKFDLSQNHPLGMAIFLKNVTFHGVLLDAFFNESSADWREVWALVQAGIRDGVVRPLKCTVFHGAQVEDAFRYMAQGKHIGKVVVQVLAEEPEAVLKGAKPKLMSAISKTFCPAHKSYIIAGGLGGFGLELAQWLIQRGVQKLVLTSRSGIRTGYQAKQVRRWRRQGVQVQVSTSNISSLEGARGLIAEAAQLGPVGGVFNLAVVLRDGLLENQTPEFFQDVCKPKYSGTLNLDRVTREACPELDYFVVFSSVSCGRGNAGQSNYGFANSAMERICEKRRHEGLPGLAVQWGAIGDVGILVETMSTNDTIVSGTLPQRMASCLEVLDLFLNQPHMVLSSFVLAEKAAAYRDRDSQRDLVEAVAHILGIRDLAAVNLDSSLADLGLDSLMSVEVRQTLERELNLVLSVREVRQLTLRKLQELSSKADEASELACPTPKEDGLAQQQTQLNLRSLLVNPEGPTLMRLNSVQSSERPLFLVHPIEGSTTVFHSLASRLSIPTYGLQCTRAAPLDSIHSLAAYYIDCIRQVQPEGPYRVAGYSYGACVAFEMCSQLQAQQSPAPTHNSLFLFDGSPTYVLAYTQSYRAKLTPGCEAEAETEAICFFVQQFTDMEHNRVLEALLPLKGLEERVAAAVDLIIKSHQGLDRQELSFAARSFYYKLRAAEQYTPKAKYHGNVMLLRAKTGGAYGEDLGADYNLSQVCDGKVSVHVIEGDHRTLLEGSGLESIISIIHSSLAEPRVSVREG
Method in brief: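 Read-out relies on hydrophobic ³H-palmitate product, formed from ³H-acetyl-CoA and malonyl-CoA, binding streptavidin imaging beads, measured at 610±20 nm after at least 24 h. Full-length enzyme (300 ng) in phosphate buffer pH 7.5 with DTT; eight compound concentrations, 0.01–30 μM.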

A2780 ovarian cells [2] = experiment: A2780 ovarian cell proliferation assay in lipid reduced medium, with palmitate (MTT); format: cell-based; conditions: Homo sapiens, A2780, 96 h; read-out: pIC50 A2780 Ovarian Cell, With Palmitate (converted)
Method in brief: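 In this palmitate-supplemented format, compound dilutions (30 μM down to 0.01 μM) are added to cells in lipid-reduced serum with 25 μM palmitate, 0.2% fatty-acid-free BSA and 0.25% ethanol. After four days (96 h) MTT absorbance at 544 nm is recorded and fitted by minimum sum of squares.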

A2780 ovarian cells [3] = experiment: A2780 ovarian cell proliferation assay in lipid reduced medium, without palmitate (MTT); format: cell-based; conditions: Homo sapiens, A2780, 96 h; read-out: pIC50 A2780 Ovarian Cell, Without Palmitate (converted)
[4] = system: LNCaP-Vancouver prostate cells; experiment: In vitro LNCaP Vancouver prostate cell proliferation assay in lipid reduced medium; format: cell-based; conditions: read-out: pIC50 LNCaP_Vancouver prostate cell (converted)
[5] = system: PC-3M-Luc-C6 prostate cells; experiment: In vitro PC-3M-Luc-C6 prostate cell proliferation assay in lipid reduced medium; format: cell-based; conditions: 96 h, read-out: pIC50 PC-3M-Luc-C6 prostate cell (converted)
[6] = target: Fatty Acid Synthase Keto-reductase Domain (FASN KR) (Homo sapiens, UniProt P49327); experiment: Fatty Acid Synthase keto-reductase domain (FASN KR) inhibition, NADPH oxidation at 340 nm
Chain of Fatty Acid Synthase Keto-reductase Domain (FASN KR) (P49327 whole entry, the tested form may be a part): as the sequence (P49327 whole entry) above
Description: After 20 minutes incubation at room temperature the plate was measured again (T2).
The decrease in absorbance was calculated as (Absorbance before incubation T1)−(Absorbance following incubation T2).
A plot of Controlmin versus test compound concentration was fitted to a 4-parameter logistic curve using a non-linear least squares regression method.

| Compound | inhibition at 10 µM [1] [%] | IC50 [1] [nM] | IC50 (A2780 ovarian cells [2]) [nM] | IC50 (A2780 ovarian cells [3]) [nM] | IC50 [4] [nM] | IC50 [5] [nM] | IC50 [6] [nM] |
| --- | --- | --- | --- | --- | --- | --- | --- |
| Cc1cc(-c2ccc3oc(C)c(C)c3c2)ccc1C1=NC2(CC2)C(=O)N1C[C@@H]1CCN(C(=O)C2CC2)C1 [compound 282, (R)-6-((1-(cyclopropanecarbonyl)pyrrolidin-3-yl)methyl)-5-(4-(2,3-dimethylbenzofuran-5-yl)-2-methylphenyl)-4,6-diazaspiro[2.4]hept-4-en-7-one] | 106 | 87.1 | > 10000 | ~2090 | ~2140 | ~1700 | 224 |
| Cc1cc(-c2ccc3[nH]ncc3c2)ccc1C1=NC2(CC2)C(=O)N1C[C@@H]1CCN(C(=O)C2CC2)C1 [compound 286, (R)-5-(4-(1H-indazol-5-yl)-2-methylphenyl)-6-((1-(cyclopropanecarbonyl)pyrrolidin-3-yl)methyl)-4,6-diazaspiro[2.4]hept-4-en-7-one] | 103 | 43.7 | > 10000 | ~21.4 | 123 | 25.1 | 60.3 |
| Cc1cc(-c2ccc3sccc3c2)ccc1C1=NC2(CC2)C(=O)N1CC1CN(C(=O)C2CC2)C1 [compound 288] | 107 | 26.9 | > 10000 | ~107 | 537 | 77.6 | 53.7 |
| Cc1cc(-c2ccc3[nH]ccc3c2)ccc1C1=NC2(CC2)C(=O)N1CC1CN(C(=O)C2CC2)C1 [compound 291, 5-(4-(1H-indol-5-yl)-2-methylphenyl)-6-((1-(cyclopropanecarbonyl)azetidin-3-yl)methyl)-4,6-diazaspiro[2.4]hept-4-en-7-one] | 108 | 27.5 | > 10000 | 45.7 | 295 | ~42.7 | 38 |
| Cc1cc(-c2ccc3[nH]ncc3c2)ccc1C1=NC2(CC2)C(=O)N1CC1CN(C(=O)C2CC2)C1 [compound 293, 5-(4-(1H-indazol-5-yl)-2-methylphenyl)-6-((1-(cyclopropanecarbonyl)azetidin-3-yl)methyl)-4,6-diazaspiro[2.4]hept-4-en-7-one] | 105 | 38 | > 10000 | 87.1 | ~513 | ~141 | 174 |
| O=C(C1CC1)N1CC(CN2C(=O)C3(CC3)N=C2c2ccc(-c3ccc4cc[nH]c4c3)cc2)C1 [compound 299, 5-(4-(1H-indol-6-yl)phenyl)-6-((1-(cyclopropanecarbonyl)azetidin-3-yl)methyl)-4,6-diazaspiro[2.4]hept-4-en-7-one] | 101 | 22.9 | > 10000 | 30.9 | 234 | 38.9 | 58.9 |
| O=C(C1CC1)N1CC(CN2C(=O)C3(CC3)N=C2c2ccc(-c3cccc4[nH]ncc34)cc2)C1 [compound 300, 5-(4-(1H-indazol-4-yl)phenyl)-6-((1-(cyclopropanecarbonyl)azetidin-3-yl)methyl)-4,6-diazaspiro[2.4]hept-4-en-7-one] | 102 | 57.5 | > 10000 | 74.1 | 1910 | 123 | 126 |
| O=C(C1CC1)N1CC[C@@H](CN2C(=O)C3(CC3)N=C2c2ccc(-c3ccc4cc[nH]c4c3)cc2)C1 [compound 301, (R)-5-(4-(1H-indol-6-yl)phenyl)-6-((1-(cyclopropanecarbonyl)pyrrolidin-3-yl)methyl)-4,6-diazaspiro[2.4]hept-4-en-7-one] | 99 | 20 | > 10000 | 14.8 | 275 | 12 | 27.5 |

The remaining molecules from weak to strong by IC50 [6], led by results:

| inhibition at 10 µM [1] [%] | IC50 [1] [nM] | IC50 (A2780 ovarian cells [2]) [nM] | IC50 (A2780 ovarian cells [3]) [nM] | IC50 [4] [nM] | IC50 [5] [nM] | IC50 [6] [nM] | Compound |
| --- | --- | --- | --- | --- | --- | --- | --- |
| 110 | 79.4 | > 10000 | ~1950 | ~2140 | ~1170 | 331 | Cc1cc(-c2ccc3sc(C)c(C)c3c2)ccc1C1=NC2(CC2)C(=O)N1CC1CN(C(=O)C2CC2)C1 [compound 290, 6-((1-(cyclopropanecarbonyl)azetidin-3-yl)methyl)-5-(4-(2,3-dimethylbenzo[b]thiophen-5-yl)-2-methylphenyl)-4,6-diazaspiro[2.4]hept-4-en-7-one] |
| 100 | 87.1 | > 10000 | 126 | 692 | 178 | 245 | Cc1cc(-c2ccc3c(cnn3C)c2)ccc1C1=NC2(CC2)C(=O)N1CC1CN(C(=O)C2CC2)C1 [compound 292, 6-((1-(cyclopropanecarbonyl)azetidin-3-yl)methyl)-5-(2-methyl-4-(1-methyl-1H-indazol-5-yl)phenyl)-4,6-diazaspiro[2.4]hept-4-en-7-one] |
| 104 | 56.2 | > 10000 | ~74.1 | 417 | 97.7 | 166 | O=C(C1CC1)N1CC(CN2C(=O)C3(CC3)N=C2c2ccc(-c3nc4ccc(F)cc4s3)cc2F)C1 [compound 271, 6-((1-(cyclopropanecarbonyl)azetidin-3-yl)methyl)-5-(2-fluoro-4-(6-fluorobenzo[d]thiazol-2-yl)phenyl)-4,6-diazaspiro[2.4]hept-4-en-7-one] |
| 102 | 42.7 | 7940 | ~20.9 | 355 | 67.6 | 145 | Cc1cc(-c2ccc3cc(C#N)ccc3c2)ccc1C1=NC2(CC2)C(=O)N1CC1CN(C(=O)C2(F)CC2)C1 [compound 273, 6-(4-(6-((1-(1-fluorocyclopropanecarbonyl)azetidin-3-yl)methyl)-7-oxo-4,6-diazaspiro[2.4]hept-4-en-5-yl)-3-methylphenyl)-2-naphthonitrile] |
| 100 | 53.7 | > 10000 | 631 | 1290 | ~575 | 105 | Cc1cc2cc(-c3ccc(C4=NC5(CC5)C(=O)N4C[C@@H]4CCN(C(=O)C5CC5)C4)cc3)ccc2s1 [compound 295, (R)-6-((1-(cyclopropanecarbonyl)pyrrolidin-3-yl)methyl)-5-(4-(2-methylbenzo[b]thiophen-5-yl)phenyl)-4,6-diazaspiro[2.4]hept-4-en-7-one] |
| 101 | 50.1 | 7240 | ~24 | 339 | 46.8 | 100 | O=C(C1CC1)N1CC(CN2C(=O)C3(CC3)N=C2c2ccc(-c3nc4ccc(Cl)cc4s3)cc2F)C1 [compound 274, 5-(4-(6-chlorobenzo[d]thiazol-2-yl)-2-fluorophenyl)-6-((1-(cyclopropanecarbonyl)azetidin-3-yl)methyl)-4,6-diazaspiro[2.4]hept-4-en-7-one] |
| 102 | 30.9 | > 6170 | 28.8 | ~912 | 39.8 | 69.2 | Cc1cc(-c2ccc3cc[nH]c3c2)ccc1C1=NC2(CC2)C(=O)N1CC1CN(C(=O)C2CC2)C1 [compound 303, 5-(4-(1H-indol-6-yl)-2-methylphenyl)-6-((1-(cyclopropancarbonyl)azetidin-3-yl)methyl)-4,6-diazaspiro[2.4]hept-4-en-7-one] |
| 105 | 18.6 | > 10000 | ~7.24 | 49 | 10.7 | ~38.9 | Cc1cc(-c2ccc3cc(C#N)ccc3c2)ccc1C1=NC2(CC2)C(=O)N1CC1CN(C(=O)C2(O)CC2)C1 [compound 272, 6-(4-(6-((1-(1-hydroxycyclopropanecarbonyl)azetidin-3-yl)methyl)-7-oxo-4,6-diazaspiro[2.4]hept-4-en-5-yl)-3-methylphenyl)-2-naphthonitrile] |
| 106 | 25.7 | > 10000 | ~23.4 | 38 | 18.2 | 30.9 | Cc1cc(-c2ccc3[nH]ccc3c2)ccc1C1=NC2(CC2)C(=O)N1C[C@@H]1CCN(C(=O)C2CC2)C1 [compound 284, (R)-5-(4-(1H-indol-5-yl)-2-methylphenyl)-6-((1-(cyclopropanecarbonyl)pyrrolidin-3-yl)methyl)-4,6-diazaspiro[2.4]hept-4-en-7-one] |
| 100 | 21.9 | > 10000 | 58.9 | 617 | 66.1 | 26.9 | O=C(C1CC1)N1CC[C@@H](CN2C(=O)C3(CC3)N=C2c2ccc(-c3ccc4sccc4c3)cc2)C1 [compound 298, (R)-5-(4-(benzo[b]thiophen-5-yl)phenyl)-6-((1-(cyclopropanecarbonyl)pyrrolidin-3-yl)methyl)-4,6-diazaspiro[2.4]hept-4-en-7-one] |
